These results are taken from US6890920B2, “Quaternary ammonium compounds” (Pharmacia & Upjohn Company, priority 1992, dated 2005).

The target of data set [1] is T1, muscarinic receptor M1 (Homo sapiens, UniProt P11229).
T1 construct: expressed in transfected cells
T1 sequence (P11229 1-460): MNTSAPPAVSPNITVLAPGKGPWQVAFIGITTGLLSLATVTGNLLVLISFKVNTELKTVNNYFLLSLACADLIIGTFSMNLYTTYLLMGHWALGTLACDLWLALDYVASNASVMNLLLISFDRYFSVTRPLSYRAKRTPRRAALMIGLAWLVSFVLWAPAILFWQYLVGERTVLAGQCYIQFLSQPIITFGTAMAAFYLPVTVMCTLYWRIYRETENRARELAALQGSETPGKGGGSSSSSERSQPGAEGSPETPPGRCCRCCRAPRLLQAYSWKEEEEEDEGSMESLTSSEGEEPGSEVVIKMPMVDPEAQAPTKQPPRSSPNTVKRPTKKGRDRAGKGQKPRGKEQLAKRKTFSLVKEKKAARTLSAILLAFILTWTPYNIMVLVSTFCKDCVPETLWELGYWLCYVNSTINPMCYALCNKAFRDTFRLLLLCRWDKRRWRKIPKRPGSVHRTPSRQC
Nature of the data set: Muscarinic receptor subtype M1 binding assay, radioligand displacement. The procedure:
(§1) Muscarinic receptor subtype M1-M5 binding assays were carried out. Briefly, [3]H-methylscopolamine was allowed to bind to membranes from various recombinant mammalian cell lines, each with an over-expression of a particular receptor subtype.
(§2) Muscarinic receptor subtype M1-M5 binding assays were performed.

Data set [2] has as its target T2, muscarinic receptor M5 (Homo sapiens, UniProt P08912).
T2 construct: expressed in transfected cells
T2 sequence (P08912 1-532): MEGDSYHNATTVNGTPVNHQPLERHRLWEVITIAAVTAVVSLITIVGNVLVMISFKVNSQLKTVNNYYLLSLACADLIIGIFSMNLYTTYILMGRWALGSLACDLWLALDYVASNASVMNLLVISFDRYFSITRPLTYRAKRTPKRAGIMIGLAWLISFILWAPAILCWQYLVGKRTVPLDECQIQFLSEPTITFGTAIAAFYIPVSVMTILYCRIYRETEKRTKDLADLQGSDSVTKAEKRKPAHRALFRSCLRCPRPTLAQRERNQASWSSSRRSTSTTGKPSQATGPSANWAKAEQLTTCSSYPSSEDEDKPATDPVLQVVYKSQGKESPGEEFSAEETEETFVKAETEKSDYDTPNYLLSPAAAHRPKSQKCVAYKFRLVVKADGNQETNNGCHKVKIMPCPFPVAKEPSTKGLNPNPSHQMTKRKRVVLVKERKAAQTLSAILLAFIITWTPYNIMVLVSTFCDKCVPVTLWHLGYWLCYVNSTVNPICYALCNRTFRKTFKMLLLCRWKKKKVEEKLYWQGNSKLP
The experiment in a line: Muscarinic receptor subtype M5 binding assay, radioligand displacement. Conditions: [3]H-methylscopolamine displacement, membranes from recombinant mammalian cell lines; read-out: Ki values, receptor subtype M5. The procedure: as §1, §2
On the technique in general: Loss of bound radioactivity is the signal in a displacement assay; it reports binding, not function.

The target in data set [3] is T3, muscarinic receptor M2 (Homo sapiens, UniProt P08172).
T3 construct: expressed in transfected cells
T3 sequence (P08172 1-466): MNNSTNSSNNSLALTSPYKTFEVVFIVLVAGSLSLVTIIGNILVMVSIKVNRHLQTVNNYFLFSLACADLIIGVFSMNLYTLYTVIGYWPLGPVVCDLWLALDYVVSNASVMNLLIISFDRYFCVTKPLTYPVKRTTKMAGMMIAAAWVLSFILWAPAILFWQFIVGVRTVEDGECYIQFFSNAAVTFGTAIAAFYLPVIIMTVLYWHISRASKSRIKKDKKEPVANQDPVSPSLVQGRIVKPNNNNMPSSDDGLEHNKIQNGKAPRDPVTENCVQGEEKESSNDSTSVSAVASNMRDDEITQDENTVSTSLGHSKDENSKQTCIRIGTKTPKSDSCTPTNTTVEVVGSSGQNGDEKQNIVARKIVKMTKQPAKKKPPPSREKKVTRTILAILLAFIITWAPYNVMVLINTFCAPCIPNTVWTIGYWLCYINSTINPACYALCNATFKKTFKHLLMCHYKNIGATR
Nature of the data set: Muscarinic receptor subtype M2 binding assay, radioligand displacement. Conditions: [3]H-methylscopolamine displacement, membranes from recombinant mammalian cell lines. The procedure:
as §1, §2

The target of data set [4] is T4, muscarinic receptor M4 (Homo sapiens, UniProt P08173).
T4 construct: expressed in transfected cells
T4 sequence (P08173 1-479): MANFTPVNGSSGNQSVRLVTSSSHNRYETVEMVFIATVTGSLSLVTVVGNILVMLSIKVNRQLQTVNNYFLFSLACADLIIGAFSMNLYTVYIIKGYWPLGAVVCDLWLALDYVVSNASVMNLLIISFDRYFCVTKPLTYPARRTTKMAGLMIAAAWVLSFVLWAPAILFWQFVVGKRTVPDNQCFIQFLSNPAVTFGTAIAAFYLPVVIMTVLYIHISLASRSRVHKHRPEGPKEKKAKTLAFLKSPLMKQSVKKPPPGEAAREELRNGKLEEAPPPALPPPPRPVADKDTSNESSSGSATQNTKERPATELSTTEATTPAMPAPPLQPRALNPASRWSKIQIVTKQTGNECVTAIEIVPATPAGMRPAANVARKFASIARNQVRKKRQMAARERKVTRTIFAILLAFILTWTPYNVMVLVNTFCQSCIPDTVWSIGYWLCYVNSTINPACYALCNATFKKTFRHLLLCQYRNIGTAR
Nature of the data set: Muscarinic receptor subtype M4 binding assay, radioligand displacement. Conditions: [3]H-methylscopolamine displacement, membranes from recombinant mammalian cell lines. The procedure:
as §1, §2

Data set [5] relates to methacholine-induced bronchoconstriction in Balb/c mice. The experiment in a line: Bronchodilatory effect of inhaled compounds, Example VIII (% inhibition). It is filed as in vivo. The conditions noted are these: inhalation of 1 mg/mL FBE; for % inhibition of bronchoconstriction after 10 min: 10 min after dosing; for % inhibition of bronchoconstriction after 36 h: 36 h after dosing. An excerpt:
Bronchoconstriction was induced in BALB/c mice by administration of methacholine.

Data set [6] addresses T5, muscarinic receptor M3 (Homo sapiens, UniProt P20309).
T5 construct: expressed in transfected cells
The experiment in a line: Muscarinic receptor subtype M3 binding assay, radioligand displacement. The conditions noted are these: [3]H-methylscopolamine displacement, membranes from recombinant mammalian cell lines; read-out: Ki values, receptor subtype M3. The procedure:
as §1, §2

A short description of data set [7]: Pharmacokinetics of inhaled tolterodine, plasma levels. The conditions noted are these: FIG. 7. Format: in vivo, Balb/c mice. As to the method: Blood samples were collected at 2.5 minutes, 15 minutes, 30 minutes, 1 hour or 2 hours after aerosol drug treatment. Blood samples were prepared as in example VI. Samples were analyzed using a PE SCIEX API 3000 mass spectrometer. Chromatographically, the analyte and the internal standard were resolved on a Zorbax ACE Phenyl column using a gradient elution. The limit of quantitation was 100 pg/mL.

Where [8] appears, read: [3]H-methylscopolamine displacement, membranes from recombinant mammalian cell lines.

Read-outs that look alike come from different tables or passages of the source.

T5 sequence (P20309 whole entry): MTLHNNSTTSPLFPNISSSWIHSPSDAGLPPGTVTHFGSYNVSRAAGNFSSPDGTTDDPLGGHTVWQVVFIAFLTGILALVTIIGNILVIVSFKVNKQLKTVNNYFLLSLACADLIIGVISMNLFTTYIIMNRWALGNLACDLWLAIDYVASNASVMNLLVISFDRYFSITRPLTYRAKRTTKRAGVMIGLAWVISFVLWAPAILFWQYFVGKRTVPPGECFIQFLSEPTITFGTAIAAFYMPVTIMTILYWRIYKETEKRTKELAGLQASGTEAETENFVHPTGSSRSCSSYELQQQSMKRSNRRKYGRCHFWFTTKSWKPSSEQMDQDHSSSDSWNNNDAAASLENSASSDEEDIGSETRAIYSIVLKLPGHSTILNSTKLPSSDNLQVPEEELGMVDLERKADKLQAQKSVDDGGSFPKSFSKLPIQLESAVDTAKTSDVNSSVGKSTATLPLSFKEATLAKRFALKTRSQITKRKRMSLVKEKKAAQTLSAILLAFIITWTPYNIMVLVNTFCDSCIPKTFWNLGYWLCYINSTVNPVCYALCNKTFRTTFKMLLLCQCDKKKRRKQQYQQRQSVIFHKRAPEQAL

Broadly, the melting point is the temperature, or range, at which the solid turns liquid. For orientation: Ki means a measure of affinity in units of concentration, obtained from inhibition or displacement. Turning to `Cc1ccc(O)c([C@H](CC[N+](C)(C(C)C)C(C)C)c2ccccc2)c1.[Br-]` [Example 3], the melting point was 189 to 191 °C (dec.). Moreover, the Ki in data set [1] (setting [8]) stood at 0.3 nM. For the same compound, the Ki in data set [2] was determined as 0.26 nM. Moreover, the Ki in data set [3] was 0.52 nM. In addition, in data set [4], the Ki worked out at 0.72 nM. In data set [5], the “% inhibition of bronchoconstriction after 10 min” value (from here on “% inhibition … after 10 min”) turned out to be 100% and the “% inhibition of bronchoconstriction after 36 h” value (“% inhibition … after 36 h” below) worked out at 93%. Besides, the Ki in data set [6] turned out to be 0.43 nM.

Turning to `CC(C)[N+](C)(CC[C@H](c1ccccc1)c1cc(CO)ccc1O)C(C)C.[I-]` [Example 8, (3R)-3-[2-Hydroxy-5-(hydroxymethyl)phenyl]-N,N-diisopropyl-N-methyl-3-phenylpropan-1-aminium iodide], the Ki was determined as 0.86 nM in data set [1] (setting [8]); 0.68 nM in data set [2]; 1.08 nM in data set [3]; 1.07 nM in data set [4]; 0.92 nM in data set [6]. The “% inhibition … after 10 min” value in data set [5] came to 82%. Also, the “% inhibition of bronchoconstriction after 24 h” value in data set [5] (24 h after dosing) amounted to 60%. Further, the “% inhibition of bronchoconstriction after 48 h” value in data set [5] (48 h after dosing) is 15%.

`COc1ccc(C)cc1[C@H](CC[N+](C)(C(C)C)C(C)C)c1ccccc1.[I-]` [Example 20, (3R)-N,N-diisopropyl-3-(2-methoxy-5-methylphenyl)-N-methyl-3-phenylpropan-1-aminium iodide]: the melting point was 211 °C (dec.).

Consider `CCCC(=O)Oc1ccc(C)cc1[C@H](CC[N+](C)(C(C)C)C(C)C)c1ccccc1.[I-]` [Example 21, (3R)-3-[2-(Butyryloxy)-5-methylphenyl]-N,N-diisopropyl-N-methyl-3-phenylpropan-1-aminium iodide], for which the melting point was 175 °C (dec.).

In the case of `Cc1ccc(O)c(C(CC[N+]2(C)CCCC2)c2ccccc2)c1.[I-]` (centres unmarked) [Example 31, 1-[3-(2-Hydroxy-5-Methylphenyl)-3-phenylpropyl]-1-methylpyrrolidinium iodide], the Ki stood at 1.2 nM in data set [1] (setting [8]); 1.6 nM in data set [2]; 2.2 nM in data set [3]; 4.2 nM in data set [4]; 3.3 nM in data set [6]. For the same compound, the “% inhibition … after 10 min” value in data set [5] is 100%. The “% inhibition … after 36 h” value in data set [5] turned out to be 0%.

In the case of `CC[N+]1(CCC(c2ccccc2)c2cc(C)ccc2O)CCCC1.[I-]` (centres unmarked) [Example 32, 1-Ethyl-1-(3-(2-hydroxy-5-methylphenyl)-3-phenylpropyl]pyrrolidinium iodide], the Ki in data set [1] (setting [8]) was 1.1 nM; in data set [2], 1.2 nM; in data set [3], 1.7 nM; in data set [4], 3.8 nM; in data set [6], 3.1 nM. The “% inhibition … after 10 min” value in data set [5] is given as 100%. The “% inhibition … after 36 h” value in data set [5] was 17%.

For `Cc1ccc(O)c(C(CC[N+]2(C)CCCCC2)c2ccccc2)c1.[I-]` (centres unmarked) [Example 33, 1-[3-(2-Hydroxy-5-methylphenyl)-3-phenylpropyl]-1-methylpiperidinium iodide], the Ki in data set [1] (setting [8]) is 1.1 nM; in data set [2], 0.9 nM; in data set [3], 1.7 nM; in data set [4] it was 3.6 nM; in data set [6], 3.2 nM. The “% inhibition … after 10 min” value in data set [5] came out at 100%. For the same compound, the “% inhibition … after 36 h” value in data set [5] is listed as 0%.

For `Cc1ccc(O)c(C(CC[N+]2(C)CCCCCC2)c2ccccc2)c1.[I-]` (centres unmarked) [Example 34, 1-[3-(2-Hydroxy-5-methylphenyl)-3-phenylpropyl]-1-methylazepanium iodide], the Ki in data set [1] (setting [8]) was 1 nM; in data set [2], 1.8 nM; in data set [3], 1 nM; in data set [4], 2.9 nM; in data set [6], 4.7 nM. Besides, the “% inhibition … after 10 min” value in data set [5] is on record as 100%. The “% inhibition … after 36 h” value in data set [5] is 0%.

As for `CC(C)N(CC[C@H](c1ccccc1)c1cc(CO)ccc1O)C(C)C` [Hydroxytolterodine, 2-[(1R)-3-(diisopropylamino)-1-phenylpropyl]-4-(hydroxymethyl)phenol, reference compound], the Ki was determined as 1.5 nM in data set [1] (setting [8]); 0.48 nM in data set [2]; 0.33 nM in data set [3]; 1.4 nM in data set [4]; 1.4 nM in data set [6].

With `Cc1ccc(O)c([C@H](CCN(C(C)C)C(C)C)c2ccccc2)c1` [Tolterodine, 2-[(1R)-3-(diisopropylamino)-1-phenylpropyl]-4-methylphenol, reference compound], the results for the Ki in data set [1], in data set [2] and in data set [4] were 0.87 nM, 0.55 nM and 1.5 nM, respectively. The Plasma levels entry in data set [7] (inhalation of nebulized solution at 0.1 mg/ml, limit of quantitation 100 pg/mL) is “at or below detection limits”. Further, the “absorption into the circulation” value in data set [7] (inhalation of nebulized solutions at 0.1, 0.5 or 1.0 mg/ml) is “rapidly absorbed into the circulation”.
